This note sets out measurements from PubChem BioAssay (NCI).

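Where inhibition never reached the appropriate level, the endpoint shown equals the highest concentration tested. Otherwise, values were interpolated linearly from a five-concentration, 48-hour dose response in 96-well plates. At the GI50, growth is halved. TGI: concentration producing complete growth inhibition.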 A value given as a limit tells only on which side of the number the result lay.

Among the test systems are ACHN renal; HL-60(TB) leukemia; KM12 colon; M14 melanoma; SK-MEL-28 melanoma; SK-OV-3 ovarian; A498 renal.
What all share (experiment): DTP human tumour cell line panel, 48 h

A word on the TGI: it is the concentration giving total growth inhibition. Read a high TGI as lower sensitivity of the cells. As to `C/C(=C\CNc1ncnc2c1ncn2C1CCCCO1)COP(=O)(O)O` (stereo not given), the TGI in the assay on ACHN renal, in the assay with HL-60(TB) leukemia, in the assay on KM12 colon, with M14 melanoma, in the assay on SK-MEL-28 melanoma and with SK-OV-3 ovarian was above 100 µM each time.

Turning to `CC(C)(C)c1cc(Cc2ccc(S(C)(=O)=O)cc2)c(O)c(C(C)(C)C)c1`, the TGI in the assay on A498 renal was determined as 30.3 µM; with ACHN renal, 26.6 µM; in the assay with HL-60(TB) leukemia it was 42 µM; in the assay with KM12 colon it was 30.4 µM; with M14 melanoma, 28.9 µM; in the assay on SK-MEL-28 melanoma, 32 µM. Besides, in the assay on SK-OV-3 ovarian, the TGI was found to be 36.2 µM.

Consider `Nc1nc2c(ncn2C2OC(CO)C(O)C2O)c(=O)o1` (stereo not given), for which the TGI in the assay on A498 renal, in the assay on ACHN renal, in the assay with HL-60(TB) leukemia, with KM12 colon, in the assay with M14 melanoma and in the assay with SK-MEL-28 melanoma was above 100 µM each time. Moreover, the TGI in the assay with SK-OV-3 ovarian was above 100 µM.

For `NNC(=O)N/N=C(/CC1(O)C(=O)Nc2ccc(Br)cc21)c1ccccc1` (stereo not given), the total growth inhibition concentration (TGI) in the assay with ACHN renal is above 100 µM; with HL-60(TB) leukemia, 51.7 µM; in the assay on KM12 colon it was 87.5 µM; in the assay on M14 melanoma it was above 100 µM; in the assay on SK-MEL-28 melanoma, above 100 µM; with SK-OV-3 ovarian it was above 100 µM.

Consider `COc1c(CC(C)=O)c2ccccc2n1C(C)=O`, for which the TGI in the assay on A498 renal, with ACHN renal, in the assay on HL-60(TB) leukemia, in the assay on KM12 colon, in the assay with M14 melanoma and in the assay with SK-MEL-28 melanoma was above 100 µM in each case. The molecule further registered a TGI in the assay on SK-OV-3 ovarian above 100 µM.

In general, GI50 refers to the concentration that inhibits growth by half. In the case of `[pH]1p2[pH]p3p1p3[pH]2.c1cc[c]([Ge]([c]2ccccc2)[c]2ccccc2)cc1.c1cc[c]([Ge]([c]2ccccc2)[c]2ccccc2)cc1.c1cc[c]([Ge]([c]2ccccc2)[c]2ccccc2)cc1`, the GI50 is 15.8 µM in the assay with A498 renal; 16.9 µM with ACHN renal; 15.5 µM in the assay with HL-60(TB) leukemia; 15.1 µM in the assay on KM12 colon; 13.6 µM in the assay on M14 melanoma; 11.9 µM in the assay with SK-MEL-28 melanoma. In addition, the GI50 with SK-OV-3 ovarian is 15.4 µM. Further, the TGI in the assay on A498 renal was determined as 30 µM; with ACHN renal, 36.2 µM; in the assay on HL-60(TB) leukemia, 57.3 µM; in the assay on KM12 colon it was 33.7 µM; in the assay on M14 melanoma it was 27.3 µM; with SK-MEL-28 melanoma, 25 µM. The same molecule displayed a TGI in the assay on SK-OV-3 ovarian of 33.8 µM.

As to `CC(=O)[CH-]C(=O)c1ccccc1.CC(=O)[CH-]C(=O)c1ccccc1.CC(=O)[CH-]C(=O)c1ccccc1.[Cl-].[Hf+4]`, the GI50 in the assay on A498 renal is 25.5 µM; with ACHN renal it was 31.3 µM; with HL-60(TB) leukemia, 25.8 µM; in the assay on KM12 colon, 36.1 µM; in the assay with M14 melanoma, 18.6 µM; in the assay on SK-MEL-28 melanoma, 23.6 µM. For the same molecule, the GI50 in the assay on SK-OV-3 ovarian was 46.1 µM. Moreover, the TGI with A498 renal is 75.5 µM; in the assay on ACHN renal it was above 100 µM; in the assay on HL-60(TB) leukemia it was above 100 µM; in the assay on KM12 colon, above 100 µM; in the assay with M14 melanoma, 60.8 µM; with SK-MEL-28 melanoma it was 85.3 µM. Moreover, the TGI with SK-OV-3 ovarian was above 100 µM.

Turning to `c1ccc(-c2sc(-c3ccccc3)c3c2C(c2ccccc2)c2c(-c4ccccc4)sc(-c4ccccc4)c2C3c2ccccc2)cc1` (stereo not given), the TGI with A498 renal, in the assay on ACHN renal, with HL-60(TB) leukemia, in the assay on KM12 colon, in the assay on M14 melanoma and with SK-MEL-28 melanoma was above 100 µM throughout. Besides, the TGI in the assay with SK-OV-3 ovarian is above 100 µM.

With `C=C1C2CCCC1C1(S(C)(=O)=O)CCCCC21O` (stereo not given), the TGI in the assay on ACHN renal, in the assay with KM12 colon, with M14 melanoma, in the assay on SK-MEL-28 melanoma and in the assay with SK-OV-3 ovarian was above 100 µM in each case.

For `CCP(C)(=O)CC`, the concentration for total growth inhibition (TGI) in the assay on ACHN renal, in the assay with HL-60(TB) leukemia, in the assay on KM12 colon, in the assay on M14 melanoma, in the assay with SK-MEL-28 melanoma and with SK-OV-3 ovarian was above 100 µM each time.

With `CS(=O)(=O)ON1C(=O)c2ccc(N)cc2C1=O`, the concentration for total growth inhibition (TGI) was above 100 µM with A498 renal; above 100 µM in the assay with ACHN renal; 46.5 µM in the assay on HL-60(TB) leukemia; above 100 µM with KM12 colon; above 100 µM with M14 melanoma; above 88.6 µM in the assay on SK-MEL-28 melanoma. This molecule also registered a TGI with SK-OV-3 ovarian above 100 µM.

Turning to `Cc1cc(C)c([O-])c(-[n+]2c(-c3ccccc3)cc(-c3ccccc3)cc2-c2ccccc2)c1`, the TGI amounted to 16.6 µM in the assay on ACHN renal; 4.16 µM in the assay on HL-60(TB) leukemia; 13.1 µM in the assay with KM12 colon; 18.3 µM in the assay on M14 melanoma; 14.2 µM in the assay on SK-MEL-28 melanoma; 27.2 µM with SK-OV-3 ovarian.

For `O=C(CC(=O)N1N=C(n2ccc3ccccc32)CC1c1ccccc1)Nc1ccccc1Cl` (stereo not given), the TGI in the assay on A498 renal, in the assay on ACHN renal, in the assay with HL-60(TB) leukemia, in the assay with KM12 colon, in the assay on M14 melanoma and with SK-MEL-28 melanoma was above 100 µM each time. Further, in the assay with SK-OV-3 ovarian, the TGI is above 100 µM.

As for `COc1ccc(C(=O)C(c2ccc(OC)cc2)C2(O)C(=O)Nc3c(Cl)cc(Cl)cc32)cc1` (stereo not given), the TGI in the assay with ACHN renal was 61.2 µM; in the assay on HL-60(TB) leukemia it was 19.7 µM; in the assay with KM12 colon, 36.9 µM; in the assay with M14 melanoma, 33.6 µM; in the assay on SK-MEL-28 melanoma it was 44.4 µM; in the assay on SK-OV-3 ovarian it was 90.6 µM.

As for `Cc1[nH]c2ccccc2c1/C=C/c1c(C)[nH]c2ccccc12`, the TGI in the assay with A498 renal, with ACHN renal, with HL-60(TB) leukemia, in the assay with KM12 colon, in the assay on M14 melanoma and in the assay on SK-MEL-28 melanoma was above 100 µM each time. The TGI in the assay on SK-OV-3 ovarian was above 100 µM.

Turning to `O=C1C=C(Nc2cc(Cl)ccc2Cl)c2ccccc2C1=O`, the TGI was 52 µM with A498 renal; above 100 µM in the assay on ACHN renal; 40.9 µM with HL-60(TB) leukemia; 55.7 µM with KM12 colon; 38.9 µM with M14 melanoma; above 100 µM in the assay with SK-MEL-28 melanoma. This molecule had a TGI in the assay on SK-OV-3 ovarian above 100 µM.

As for `Cc1c(C(=O)/C=C/c2ccc([N+](=O)[O-])cc2)[n+](=O)c2ccccc2n1[O-]`, the TGI is above 100 µM in the assay on A498 renal; above 100 µM with ACHN renal; 2.89 µM with HL-60(TB) leukemia; above 100 µM in the assay with KM12 colon; above 100 µM in the assay with M14 melanoma; above 100 µM in the assay with SK-MEL-28 melanoma. The molecule also returned a concentration for total growth inhibition (TGI) in the assay with SK-OV-3 ovarian above 100 µM.

On to `NC(N)=NCCCC(Nc1c2ccccc2nc2ccccc12)C(=O)O` (stereo not given), for which the TGI with ACHN renal, in the assay on HL-60(TB) leukemia, with KM12 colon, in the assay on M14 melanoma and in the assay with SK-MEL-28 melanoma was above 100 µM in each case.

On to `COC12OCCN(C)C1=CC(=O)C1N=NCC12` (stereo not given), for which the TGI with A498 renal, in the assay on HL-60(TB) leukemia, in the assay on KM12 colon, in the assay with M14 melanoma, in the assay on SK-MEL-28 melanoma and with SK-OV-3 ovarian was above 100 µM each time.

Take `CN(C)CC1CCCC/C1=N\OC(=O)c1ccccc1` (stereo not given): the TGI in the assay with A498 renal, with ACHN renal, in the assay with HL-60(TB) leukemia, in the assay with KM12 colon, in the assay on M14 melanoma and with SK-MEL-28 melanoma was above 100 µM throughout. For the same molecule, in the assay with SK-OV-3 ovarian, the TGI was above 100 µM.

With `COC1(OC)CCC2(C)OC(c3ccccc3)C1O2` (stereo not given), the TGI in the assay with ACHN renal, in the assay on HL-60(TB) leukemia, in the assay with KM12 colon, with M14 melanoma, in the assay on SK-MEL-28 melanoma and in the assay on SK-OV-3 ovarian was above 100 µM in each case.

Turning to `CCOC(=O)C1(C)C2=CC=C(O2)C(C)(C)C2=CC=C(O2)C(C)(C)C2=CC=C(O2)C(C)(C)C2=CC=C1O2`, the TGI in the assay on A498 renal, in the assay with ACHN renal, in the assay on HL-60(TB) leukemia, in the assay on KM12 colon, with SK-MEL-28 melanoma and with SK-OV-3 ovarian was above 100 µM in each case.

Regarding `O=C1CCC2(c3ccccc3)OCC([C@@H](O)c3ccccc3)N12` (stereo not given in full), the TGI in the assay on A498 renal, in the assay on ACHN renal, in the assay with KM12 colon and in the assay with SK-MEL-28 melanoma was above 100 µM each time.

For `O=c1[nH]c(-c2ccccc2)nc2cc([N+](=O)[O-])c(/C(Cl)=C/c3ccccc3)cc12`, the TGI in the assay on ACHN renal was above 100 µM; in the assay with KM12 colon, above 100 µM; with SK-MEL-28 melanoma, above 100 µM; with SK-OV-3 ovarian, 72.2 µM.

`CC1CN1c1c(C(=O)/C=C/c2ccc(F)cc2)c(-c2ccccc2)nn(C)c1=O` (stereo not given): the TGI turned out to be 36.3 µM with ACHN renal; 43 µM in the assay with HL-60(TB) leukemia; 29.4 µM with KM12 colon; 30.5 µM with M14 melanoma; 32 µM with SK-MEL-28 melanoma.

Take `CC(=O)NNc1nc(C)c(C(=O)/C=C/c2ccc(N(C)C)cc2)s1`: the TGI in the assay on A498 renal, in the assay with ACHN renal, with HL-60(TB) leukemia, in the assay on KM12 colon, with SK-MEL-28 melanoma and in the assay with SK-OV-3 ovarian was above 100 µM each time.
